# Experimental data taken from PubChem BioAssay (NCI).
#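 Where inhibition never reached the appropriate level, the endpoint shown equals the highest concentration tested. Otherwise, values were interpolated linearly from a five-concentration, 48-hour dose response in 96-well plates. The concentration for 50% growth inhibition is given as GI50. Definition used: TGI = concentration required for complete inhibition of growth.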
# Experiments:
# Assay in all cases: DTP human tumour cell line panel, 48 h
# UACC-257 melanoma = system: UACC-257 melanoma
# SNB-19 CNS = system: SNB-19 CNS
# U251 CNS = system: U251 CNS
# A498 renal = system: A498 renal
# TK-10 renal = system: TK-10 renal
# SF-268 CNS = system: SF-268 CNS
# SW-620 colon = system: SW-620 colon
# SNB-75 CNS = system: SNB-75 CNS
# SF-539 CNS = system: SF-539 CNS
# CCRF-CEM leukemia = system: CCRF-CEM leukemia
SMILES,TGI (UACC-257 melanoma),TGI (SNB-19 CNS),TGI (U251 CNS),TGI (A498 renal),TGI (TK-10 renal),TGI (SF-268 CNS),TGI (SW-620 colon),TGI (SNB-75 CNS),TGI (SF-539 CNS),TGI (CCRF-CEM leukemia),GI50 (UACC-257 melanoma),GI50 (SNB-19 CNS),GI50 (U251 CNS),GI50 (A498 renal),GI50 (TK-10 renal),GI50 (SF-268 CNS),GI50 (SW-620 colon),GI50 (SNB-75 CNS),GI50 (SF-539 CNS),GI50 (CCRF-CEM leukemia)
O=c1[nH]c2cc(Cl)ccc2nc1/C(=N\O)C(O)c1ccc([N+](=O)[O-])cc1 (stereo not given),> 100 µM,> 100 µM,> 100 µM,> 100 µM,> 100 µM,> 100 µM,> 100 µM,> 100 µM,> 100 µM,> 100 µM,–,–,–,–,–,–,–,–,–,–
COc1cccc(C2c3cc4c(cc3OC(N3CCCC3)C2C)OCO4)c1O (stereo not given),40.3 µM,> 100 µM,25.8 µM,33.7 µM,40.1 µM,70.1 µM,> 100 µM,8.29 µM,10.6 µM,> 100 µM,–,–,–,–,–,–,–,–,–,–
C[N+](C)(C)CC(=O)N/N=C(\C(=O)NC1=C(Cl)C(=O)c2ccccc2C1=O)C(C#N)c1csc(-c2ccc([N+](=O)[O-])cc2)n1 (stereo not given),> 100 µM,> 100 µM,> 100 µM,> 100 µM,> 100 µM,> 100 µM,> 100 µM,> 100 µM,> 100 µM,> 100 µM,–,–,–,–,–,–,–,–,–,–
CN(C)c1nc(=Nc2cccc(Cl)c2)ss1,36 µM,> 100 µM,24.1 µM,93 µM,> 100 µM,30.4 µM,18.8 µM,66.3 µM,32.8 µM,22.1 µM,–,–,–,–,–,–,–,–,–,–
CCOC(=N)/C(=C1\OC(N)=C(c2ccc(Cl)cc2)C1=O)c1ccc(Cl)cc1,35.1 µM,49.9 µM,30.8 µM,32.5 µM,51.9 µM,31.3 µM,32.1 µM,38.5 µM,30.2 µM,65.6 µM,–,–,–,–,–,–,–,–,–,–
O=C1/C(=C\c2ccccn2)c2ccccc2N1c1c(Cl)cccc1Cl,6.19 µM,6.25 µM,3.68 µM,5.98 µM,12.7 µM,9.54 µM,3.69 µM,15.4 µM,6.33 µM,> 100 µM,2.2 µM,2.28 µM,1.84 µM,2.1 µM,3.39 µM,2.96 µM,1.89 µM,2.01 µM,2.44 µM,3.31 µM
CC1(CCC(=O)OC2CCCCC2)OCCO1,> 100 µM,> 100 µM,> 100 µM,> 100 µM,> 100 µM,> 100 µM,> 100 µM,> 100 µM,> 100 µM,> 100 µM,–,–,–,–,–,–,–,–,–,–
CC(C)(C)[Si](C)(C)OC1[C@@H](O[Si](C)(C)C(C)(C)C)[C@@H](CNC(=O)NC(=O)CCl)O[C@H]1n1cnc2c(NC(=O)Nc3ccccc3)ncnc21 (stereo not given in full),1.89 µM,3.96 µM,1.21 µM,2.11 µM,1.88 µM,1.44 µM,1.36 µM,1.28 µM,1.58 µM,0.125 µM,0.884 µM,1.11 µM,0.51 µM,0.902 µM,0.978 µM,0.665 µM,0.441 µM,0.536 µM,0.837 µM,0.0441 µM
C=C1CCC2C(C)(COC(=O)CC)C(OC(=O)CC)CCC2(C)C1C/C=C1/C(=O)OCC1OC(=O)CC (stereo not given),2.7 µM,14.7 µM,2.59 µM,13.3 µM,5.59 µM,3.39 µM,2.44 µM,3.68 µM,4.17 µM,> 100 µM,1.33 µM,3.74 µM,1.3 µM,4.05 µM,2.04 µM,1.91 µM,1.17 µM,1.22 µM,1.84 µM,0.558 µM
O=Cc1ccc(-c2ccc(-c3nc4ccccc4o3)cc2)o1,> 100 µM,> 100 µM,88.1 µM,> 100 µM,74.8 µM,> 100 µM,> 100 µM,> 100 µM,> 100 µM,> 100 µM,92.3 µM,> 100 µM,25.4 µM,21.2 µM,32.5 µM,29.6 µM,33 µM,81.9 µM,32.3 µM,> 100 µM
O=S1Nc2c(Cl)cc(Cl)c3c(Cl)cc(Cl)c(c23)N1,> 100 µM,> 100 µM,69.6 µM,74.4 µM,> 100 µM,> 100 µM,> 100 µM,55.3 µM,> 100 µM,> 100 µM,–,–,–,–,–,–,–,–,–,–
Cc1cc(CC(C)CC(C)(C)C)n(O)c(=O)c1 (stereo not given) (tested in a mixture with another compound),> 100 µM,> 100 µM,13.9 µM,10.3 µM,> 74.7 µM,16.1 µM,> 81.1 µM,61.2 µM,13.2 µM,1.3 µM,0.507 µM,0.519 µM,0.4 µM,0.944 µM,5.09 µM,0.409 µM,0.478 µM,1.61 µM,0.39 µM,0.261 µM
